One assay concerns S. aureus ATCC 25923. Description: microbe, parasite or virus in culture. An excerpt: (§1) Clinical S. aureus strains were collected from patients with atopic dermatitis during their visits to the Outpatient Clinic and hospitalization in the Department of Dermatology, Venereology and Allergology at Medical University of Gdańsk (following the approval from the ethics committee, Approval Number NKBBN/242–477/2014). Reference strains of S. aureus ATCC 25923, S. aureus ATCC 33591, S. aureus ATCC 9144, and S. aureus ATCC 12598 were obtained from the American Type Culture Collection. All the strains were stored at − 80 °C in Roti®-Store cryo vials (Carl Roth GmbH, Karlsruhe, Germany) and before the tests were transferred into fresh Mueller–Hinton Medium (BioMaxima, Lublin, Poland) and incubated for 24 h at 37 °C. Subsequently, each bacterial inoculum was seeded on Mueller–Hinton agar plates (BioMaxima) and incubated again for 24 h. The cultures prepared in this way were used in further antimicrobial assays. Minimum inhibitory concentrations (MICs) were determined according to the Clinical and Laboratory Standards Institute recommendations. […] The experiments were conducted on 96-well microtiter plates, with a final volume of 100 μL. Additionally, in the case of daptomycin, the medium was supplemented with Ca^2+ (50 mg/L). Cell densities were adjusted spectrophotometrically (Multiskan™ GO Microplate Spectrophotometer, Thermo Scientific) at 600 nm. The MICs were taken as the lowest drug concentration at which a visible growth of the microorganisms was inhibited. Minimum biofilm eliminating concentrations (MBECs) were determined on 96-well flat-bottomed microtiter polystyrene plates with resazurin (7-hydroxy-3H-phenoxazin-3-one 10-oxide sodium salt) as a cell viability reagent. To do this, the plates were filled with 100 μL of the initial inoculums of bacteria (0.5 × 10^7 CFU/mL) in the Mueller–Hinton broth and incubated for 24 h at 37 °C. […] After 24 h of incubation, 20 μL of resazurin (4 mg/mL) was added to each well and the MBEC values were read. Minimum biofilm inhibitory concentrations (MBICs) were also determined on 96-well flat-bottomed microtiter polystyrene plates as described previously. To do this, 50 μL of the compounds in the concentration range, diluted MHB, were prepared. Subsequently, the 50 μL of the staphylococcal inoculums were added to reach the same density of bacteria as that in the MBEC assay. After 24 h of incubation at 37 °C, the wells were rinsed three times with PBS and the fresh medium (100 μL) with resazurin (0.6 mg/mL) was added. Then, after 1 h of incubation, MBICs were read. […] All experiments were conducted in triplicate.
(§2) Formation of the biofilm inside the PDMS flow chambers was performed using three peristaltic pumps working simultaneously (LP-pump, Kamush, Lipopharm, Poland) and sterile Tygon® 3350 silicone hoses (2.4 × 0.8 × 0.8 mm) with a length of 30 and 50 cm for inlet and outlet, respectively. Bacterial suspensions were prepared (0.5 × 10^7 CFU/mL) in sterile 50-mL test tubes, which were placed in a heating block at 37 °C. Before experiments, all channels were assessed for tightness and sterilized using a 70% 2-propanol solution (10 min, flow rate 1 mL/min) and rinsed with sterile PBS solution (10 min, flow 0.1 mL/min). The formation of biofilm inside the channels was divided into three stages: (1) adhesion—at this stage S. aureus suspensions were passed through the channels for 4 h at a flow rate of 0.1 mL/min; (2) rinsing—the previously used hoses were replaced with new sterile ones, and the channels were rinsed with sterile PBS solution for 10 min at a flow rate of 0.1 mL/min; (3) biofilm growth—after flushing the channels, the silicone hoses were placed in tubes with MHB medium, which was passed through the channels for 24 h at a flow rate of 0.1 mL/min. All experiments included growth and sterility controls.
(§3) This assay was conducted also on the S. aureus ATCC 25923 and S. aureus 33,591 (MRSA) strains.

For assay [1], the system named is S. aureus ATCC 33591 (MRSA). Description: microbe, parasite or virus in culture.
Description: as §1, §2, §3

The subject of assay [2] is S. aureus clinical strain 004N (MRSA). Details: method as in earlier work. The note with it: clinical isolate 004N (MRSA), nasal swab; cited from earlier work.
For assay [3], the system named is S. aureus clinical strain 005S. Set-up: method as in earlier work. To be noted: clinical isolate 005S, skin; cited from earlier work.
Assay [4] concerns S. aureus clinical strain 009S. Set-up: method as in earlier work. The note with it: clinical isolate 009S, skin; cited from earlier work.
The subject of assay [5] is S. aureus clinical strain 015N (MRSA). Set-up: method as in earlier work. The note with it: clinical isolate 015N (MRSA), nasal swab; cited from earlier work.
Assay [6] relates to S. aureus clinical strain 030N. Details: method as in earlier work. The note with it: clinical isolate 030N, nasal swab; cited from earlier work.
For assay [7], the system named is S. aureus clinical strain 031S. Details: method as in earlier work. The note with it: clinical isolate 031S, skin; cited from earlier work.
Assay [8] deals with S. aureus clinical strain 043SC (MRSA). Details: method as in earlier work. To be noted: clinical isolate 043SC (MRSA), skin of patient with furuncle folliculitis; cited from earlier work.
In assay [9] the test system is S. aureus clinical strain 051N (MRSA). Details: method as in earlier work. The note with it: clinical isolate 051N (MRSA), nasal swab; cited from earlier work.
Assay [10] deals with S. aureus clinical strain 060S. Set-up: method as in earlier work. To be noted: clinical isolate 060S, skin; cited from earlier work.
[11] abbreviates: S. aureus 25923 biofilm treated under flow with Retro-Omiganan (half MBEC) for 24 h.
[12] abbreviates: S. aureus 25923 biofilm treated under flow with Retro-Omiganan (half MBEC) for 48 h.
The mark [13] stands for this setting: S. aureus 25923 biofilm treated under flow with Retro-Omiganan (half MBEC) for 72 h.
[14] abbreviates: Staphylococcus aureus, ATCC25923, 0 h.
The mark [15] stands for this setting: Staphylococcus aureus, ATCC25923, 24 h.
The mark [16] stands for this setting: Staphylococcus aureus, ATCC25923, 48 h.
Where [17] appears, read: Staphylococcus aureus, ATCC25923, 72 h.
Setting [18] is: S. aureus ATCC 33591 (MRSA) biofilm treated under flow with Retro-Omiganan (half MBEC) for 24 h.
[19] abbreviates: S. aureus ATCC 33591 (MRSA) biofilm treated under flow with Retro-Omiganan (half MBEC) for 48 h.
[20] abbreviates: S. aureus ATCC 33591 (MRSA) biofilm treated under flow with Retro-Omiganan (half MBEC) for 72 h.

Structures are written as SMILES. In brackets after ≈: the same amount, converted by molar mass. Bounds are passed on as bounds.

As for `CC(=O)O[C@H]1C[C@@]2(C)[C@@H](C[C@@H](O)[C@H]3[C@@]4(C)CC[C@@H](O)[C@@H](C)[C@@H]4CC[C@@]32C)/C1=C(\CCC=C(C)C)C(=O)O` [Fusidic Acid], the MIC in the assay on S. aureus ATCC 25923 (setting [11]), in the assay on S. aureus ATCC 25923 (setting [12]), against S. aureus ATCC 25923 (setting [13]), with S. aureus ATCC 25923 (setting [14]), with S. aureus ATCC 25923 (setting [15]) and against S. aureus ATCC 25923 (setting [16]) was ≤ 0.25 µg/mL in each case. Besides, the MIC with S. aureus ATCC 25923 (setting [17]) is ≤ 0.25 µg/mL; in [1] (setting [18]) it was ≤ 0.25 µg/mL; in assay [1] (setting [19]), ≤ 0.25 µg/mL; in assay [1] (setting [20]), ≤ 0.25 µg/mL; in assay [1] (Staphylococcus aureus, 0 h), ≤ 0.25 µg/mL; in assay [1] (Staphylococcus aureus, 24 h), ≤ 0.25 µg/mL. Moreover, the MIC in [1] (Staphylococcus aureus, 48 h) is ≤ 0.25 µg/mL; in assay [1] (Staphylococcus aureus, 72 h) it was ≤ 0.25 µg/mL. Further, the “Antimicrobial susceptibility (MIC)” value in assay [2] was 0.0625 µg/mL; in assay [3], 0.0625 µg/mL; in assay [4], 2 µg/mL; in [5] it was 0.125 µg/mL; in [6] it was 0.25 µg/mL; in assay [7], 0.25 µg/mL. The “Antimicrobial susceptibility (MIC)” value in assay [8], in [9] and in assay [10] was 0.125 µg/mL each time.
For `CCC[C@@H]1C[C@@H](C(=O)N[C@@H]([C@H]2O[C@H](SC)[C@H](O)[C@@H](O)[C@H]2O)[C@@H](C)O)N(C)C1` [Lincomycin], the MIC in the assay on S. aureus ATCC 25923 (setting [11]) is 1.0 µg/mL (≈ 2.46 µM); in the assay on S. aureus ATCC 25923 (setting [12]), 1.0 µg/mL (≈ 2.46 µM); with S. aureus ATCC 25923 (setting [13]), 1.0 µg/mL (≈ 2.46 µM); in the assay on S. aureus ATCC 25923 (setting [14]), 1 µg/mL (≈ 2.46 µM); against S. aureus ATCC 25923 (setting [15]) it was 1 µg/mL (≈ 2.46 µM); against S. aureus ATCC 25923 (setting [16]) it was 1 µg/mL (≈ 2.46 µM). The MIC with S. aureus ATCC 25923 (setting [17]) was 1 µg/mL (≈ 2.46 µM); in assay [1] (setting [18]) it was > 128 µg/mL; in assay [1] (setting [19]), > 128 µg/mL; in assay [1] (setting [20]), > 128 µg/mL; in assay [1] (Staphylococcus aureus, 0 h) it was > 128 µg/mL; in assay [1] (Staphylococcus aureus, 24 h), > 128 µg/mL. Besides, the MIC is > 128 µg/mL in [1] (Staphylococcus aureus, 48 h) and > 128 µg/mL in [1] (Staphylococcus aureus, 72 h). Moreover, the “Antimicrobial susceptibility (MIC)” value in assay [2] was 1 µg/mL; in assay [3], 1 µg/mL; in assay [4], 0.25 µg/mL; in [5], 1 µg/mL; in [6], 0.5 µg/mL; in assay [7], 0.5 µg/mL. The “Antimicrobial susceptibility (MIC)” value is on record as > 512 µg/mL in assay [8], 1 µg/mL in [9] and 0.5 µg/mL in assay [10].
With `CC(=O)NC[C@H]1CN(c2ccc(N3CCOCC3)c(F)c2)C(=O)O1` [Linezolid], the MIC in the assay on S. aureus ATCC 25923 (setting [11]) came out at 1.0 µg/mL (≈ 2.96 µM); in the assay on S. aureus ATCC 25923 (setting [12]), 1.0 µg/mL (≈ 2.96 µM); against S. aureus ATCC 25923 (setting [13]) it was 1.0 µg/mL (≈ 2.96 µM); against S. aureus ATCC 25923 (setting [14]), 1 µg/mL (≈ 2.96 µM); in the assay on S. aureus ATCC 25923 (setting [15]), 1 µg/mL (≈ 2.96 µM); in the assay with S. aureus ATCC 25923 (setting [16]) it was 1 µg/mL (≈ 2.96 µM). In addition, the MIC against S. aureus ATCC 25923 (setting [17]) is 1 µg/mL (≈ 2.96 µM); in [1] (setting [18]) it was 1.0 µg/mL (≈ 2.96 µM); in assay [1] (setting [19]) it was 1.0 µg/mL (≈ 2.96 µM); in [1] (setting [20]), 1.0 µg/mL (≈ 2.96 µM); in assay [1] (Staphylococcus aureus, 0 h) it was 1 µg/mL (≈ 2.96 µM); in assay [1] (Staphylococcus aureus, 24 h), 1 µg/mL (≈ 2.96 µM). Besides, the MIC worked out at 1 µg/mL (≈ 2.96 µM) in assay [1] (Staphylococcus aureus, 48 h) and 1 µg/mL (≈ 2.96 µM) in [1] (Staphylococcus aureus, 72 h). Further, the “Antimicrobial susceptibility (MIC)” value in assay [2] is listed as 1 µg/mL; in assay [3] it was 0.5 µg/mL; in assay [4], 0.25 µg/mL; in [5], 2 µg/mL; in assay [6], 0.5 µg/mL; in [7], 2 µg/mL. The “Antimicrobial susceptibility (MIC)” value in assay [8] is 2 µg/mL; in assay [9], 2 µg/mL; in [10], 1 µg/mL.
Regarding `C/C(=C\C(=O)OCCCCCCCCC(=O)O)C[C@@H]1OC[C@H](C[C@@H]2O[C@H]2[C@@H](C)[C@H](C)O)[C@@H](O)[C@H]1O` [Mupirocin], the MIC in the assay on S. aureus ATCC 25923 (setting [11]), in the assay on S. aureus ATCC 25923 (setting [12]), against S. aureus ATCC 25923 (setting [13]), against S. aureus ATCC 25923 (setting [14]), against S. aureus ATCC 25923 (setting [15]) and against S. aureus ATCC 25923 (setting [16]) was ≤ 0.25 µg/mL in each case. The MIC against S. aureus ATCC 25923 (setting [17]) was ≤ 0.25 µg/mL; in [1] (setting [18]), ≤ 0.25 µg/mL; in [1] (setting [19]) it was ≤ 0.25 µg/mL; in assay [1] (setting [20]) it was ≤ 0.25 µg/mL; in assay [1] (Staphylococcus aureus, 0 h), ≤ 0.25 µg/mL; in assay [1] (Staphylococcus aureus, 24 h) it was ≤ 0.25 µg/mL. In addition, the MIC in [1] (Staphylococcus aureus, 48 h) is ≤ 0.25 µg/mL; in assay [1] (Staphylococcus aureus, 72 h), ≤ 0.25 µg/mL. The “Antimicrobial susceptibility (MIC)” value in [2] is 0.125 µg/mL; in assay [3], > 512 µg/mL; in assay [4], > 512 µg/mL; in assay [5] it was 0.25 µg/mL; in assay [6], 0.25 µg/mL; in [7], 32 µg/mL. For the same molecule, the “Antimicrobial susceptibility (MIC)” value is reported as 0.5 µg/mL in assay [8], 0.25 µg/mL in assay [9] and > 512 µg/mL in assay [10].
